From article PMC6013495, “Development of a Novel Backbone Cyclic Peptide Inhibitor of the Innate Immune TLR/IL1R Signaling Protein MyD88” (Scientific Reports, 2018)

Assays:
[1] = biological target: T1, human MyD88 TIR domain (aa 150–296) (Homo sapiens, UniProt Q99836); assay: Competitive binding assay, Biotin-MyDI on recombinant SUMO-MyD88-TIR; details: SUMO-MyD88-TIR 8 µg/ml coated, Streptavidin-HRP read-out
T1 construct: human MyD88 TIR domain residues 150–296; His tag; made in house; host or cells: E. coli BL21 C43 (DE3)
From the text: A synthetic DNA fragment corresponding to the cDNA encoding human MyD88 TIR domain residues 150–296 with BamH/Xhol restriction enzymes was from IDT (Integrated DNA technologies, IA, USA). DNA was amplified with the Ready-mix PCR kit (Sigma), and ligated (New England BioLabs, MA, USA) with the restriction enzymes BamH and Xhol (TaKaRa, Kusatsu, Shiga Prefecture, Japan) to pETM-11 SUMO3GFP fusion vector for protein expression in E. coli, a gift from the EMBL protein expression and purification core facility. Plasmids were gel purified with PureLink Quick Gel Extraction kit (Invitrogen, San Diego, CA, USA), sequence verified, and transformed to (C2987) NEB Dh5a competent cells (New England BioLabs) and amplified with a QIAGEN plasmid midiprep kit. The recombinant fusion protein- SUMO-MyD88-TIR was expressed in E. coli BL21 C43 (DE3) cells (Lucigen, WI, USA). E. coli BL21 C43(DE3) were grown in 2xYT medium containing 1% glucose, […] MgSO4 and 20xNPS (100 mM PO4, 25mMSO4, 50 mM NH4. 100 mM Na, 50 mM K) up to mid-log phase (O.D-0.6) in 37 °C and then were grown o.n at 25 °C with 0.4 mM IPTG (Sigma). […]
The recombinant SUMO-MyD88-TIR protein (8 µg/ml) was attached to polystyrene microtiter 96 well plates (Nunc, Roskilde, Denmark) at 4 °C o.n. […] After 5 min, 2 N sulfuric acid stop solution was added and absorbance was read at 450 nm in an Infinite 200 Pro plate reader (Tecan). […]

[2] = biological target: T2, SUMO protein fused to eGFP (Homo sapiens, UniProt P55854); assay: Binding of Biotin-MyDI to control SUMO-eGFP fusion protein; details: SUMO-eGFP coated, Streptavidin-HRP read-out
T2 construct: His tag; made in house; host or cells: E. coli BL21 C43 (DE3)

T1 sequence (Q99836 150-296): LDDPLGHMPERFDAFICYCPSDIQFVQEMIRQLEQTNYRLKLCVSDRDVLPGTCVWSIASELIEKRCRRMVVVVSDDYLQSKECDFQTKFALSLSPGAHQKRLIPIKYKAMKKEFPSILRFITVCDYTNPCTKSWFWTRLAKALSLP

Substance: Biotin-MyDI: Biotinylated linear BB loop peptide RDVLPGT, from Bio Basic Inc.
- binding to the MyD88 TIR domain [1]: bound the TIR domain in a concentration dependent manner
- binding to control fusion protein [2]: did not bind at any concentration
